US20190048052A1, “ANTI-MICROBIAL PEPTIDES AND COATINGS” (Board of Regents of the University of Nebraska, priority 2016, published 2019)
Converted amounts (≈) assume the structure as drawn. Read-outs that look alike come from different tables or passages of the source. One block for each compound: values may come before it. Non-standard residues stand in square brackets, D forms with d. Residues, ends and D or L forms follow the SMILES beside them.

Legend:
E. cloacae B2366-12 = assay type: cell-based, Enterobacter cloacae; conditions: B2366-12
Protocol: (§1) Bacterial strains used in this study included Enterococcus faecium ATCC51559, Staphylococcus aureus USA300 LAC, Klebsiella pneumoniae ATCC 13883, Acinetobacter baumannii B2367-12, Pseudomonas aeruginosa PAO1, Enterobacter cloacae B2366-12 and Escherichia coli ATCC 25922, wherein the first six constituting the ESKAPE pathogens. Tryptic soy broth (TSB) for bacterial growth was obtained from BD Bioscience (Sparks, Md.).
(§2) The antibacterial activity of peptides was evaluated using a standard broth microdilution protocol as described (Wang et al. (2012) Antimicrob. Agents Chemother., 56:845-856). In brief, 5 μl of each bacterium (stored at −80° C.) were inoculated into TSB medium (2 ml) and grown overnight. A second inoculation was made in the morning by delivering 10 μl of the overnight culture to a fresh TSB medium. After 2-3 hours growth at 37° C., 225 rpm, logarithmic phase bacterial cultures (OD600≈0.5) were diluted and partitioned into a 96-well polystyrene microplate with ˜10^5 colony forming units (CFU) per well (90 μl aliquots). After treatment with 10 μl of peptide solutions at various concentrations, microplates were incubated at 37° C. overnight and read on a ChroMate® 4300 Microplate Reader at 630 nm (GMI, Ramsey, Minn.). The medium was used as a blank where no bacteria should grow.

E. faecium ATCC51559 = assay type: cell-based, Enterococcus faecium; conditions: ATCC51559
Protocol: as §1, §2

ESKAPE pathogens = assay type: cell-based
Protocol: as §1, §2

P. aeruginosa PAO1 = assay type: cell-based, Pseudomonas aeruginosa
Protocol: as §1, §2

A. baumannii B2367-12 = assay type: cell-based, Acinetobacter baumannii; conditions: B2367-12
Protocol: as §1, §2

S. aureus USA300 LAC = assay type: cell-based, Staphylococcus aureus; conditions: USA300
Protocol: as §1, §2

E. coli ATCC 25922 = assay type: cell-based, Escherichia coli; conditions: ATCC 25922
Protocol: as §1, §2

C. tropicalis ATCC 13803 = assay type: cell-based, Candida tropicalis; conditions: ATCC 13803, 48 h
Protocol: (§3) Fungal strains used in this study include Candida albicans ATCC 10231, C. glabrata ATCC 2001 and C. tropicalis ATCC 13803. The fungi were grown in Remel Dex broth (Thermo Fisher Scientific, KS). Antifungal assays were conducted essentially as described for antibacterial assays above, except for a higher starting density at an OD600 0.02 and a longer incubation time of ˜48 hours prior to microplate reading (Mishra et al. (2015) RSC Advances 5:59758-59769).

B. subtilis 168 = assay type: cell-based, Bacillus subtilis
Protocol: (§4) The bacterial strains used here included Gram-positive bacteria Staphylococcus aureus USA300 LAC, Staphylococcus epidermidis 1457, Bacillus subtilis 168, and Gram-negative Escherichia coli K12. Clinical strains of S. aureus, including Mu50, UAMS-1 and Newman, were also evaluated.
(§5) The antimicrobial activity of peptides was evaluated using a standard broth microdilution protocol (Wang, G. (2008) J. Biol. Chem., 283:32637-32643). In brief, exponential phase bacteria at 10^6 CFU were incubated with serially diluted peptides overnight for ˜20 hours at 37° C. The plates were read on a ChroMate® 4300 Microplate Reader at 630 nm (GMI, Ramsey, Minn.). […] In addition, the effects of human serum (up to 10%), pH (6.8, 7.4 and 8.0) and 150 mM sodium chloride (NaCl) on MICs against S. aureus USA300 were also evaluated (Mishra et al. (2015) RSC Advances 5:59758-59769).

MTS cytotoxicity assay [1] = assay type: cell-based; conditions: human, HeLa CCL-2 cells
Protocol: (§6) HeLa CCL-2 epithelial adenocarcinoma cells from American Type Culture Collection (ATCC) were maintained in DMEM high glucose media with 4 mM L-glutamine (NyClone) and 100 U/mL penicillin, 100 μg/mL streptomycin (pen/strep) (Life Technologies), and 10% (v/v) inactivated fetal bovine serum (FBS) (NyClone). Cells were grown in 5% CO2 at 37° C. and were detached from the culturing dish at 80% confluency using 0.025% trypsin-EDTA (NyClone) treatment. Peptide influence on the cell viability was estimated by using the MTS assay according to the manufacturer's protocol (MTS, CellTiter96® AQ One Solution Cell Proliferation Assay, Promega) with minor modifications and as described elsewhere (Mishra et al. (2015) RSC Advances 5:59758-59769). In short, cells were cultured in flat bottomed 96 well microtiter plates (Corning Life Science) at a seeding density of 20,000 cells/well. At confluence ˜100% achieved after 20-24 hours of cultivation, the cells were washed twice with 100 μL Dulbecco's Phosphate Buffered Saline (Life Technologies). Further, 90 μL of DMEM media with 10% FBS, pen/step was added before exposure to 10 μL of the peptide solution in the concentration range 12.5-100 μM. Plates were incubated at 37° C. After 1 hour, 10 μL MTS, CellTiter96® was added. Plates were further incubated for another 2 hours at 37° C. and finally, the absorbance was measured on ChroMate® reader (Awareness Technology) at 492 nm. Culture medium and 0.2% SDS were used as negative and positive controls, respectively.

Hemolytic assay = assay type: cell-based; conditions: red blood cells, hemolysis
Protocol: Hemolytic analysis of selected peptides was performed using an established protocol (Mishra et al. (2015) RSC Advances 5:59758-59769). Briefly, human blood cells (UNMC Blood Bank) were washed three times with phosphate buffer saline (PBS) and diluted to a 2% solution. After peptide treatment, incubation at 37° C. for one hour, and centrifugation at 13,000 rpm, aliquots of the supernatant were transferred to a fresh 96-well microplate. To assess peptide cytotoxicity, the amount of hemoglobin released was measured at 545 nm. The percent lysis was calculated by assuming 100% release when human blood cells were treated with 1% TRITON™ X-100, and 0% release when incubated with PBS buffer. The hemolytic assays using chicken, bovine, and porcine blood cells (Lampire Biological Laboratories, Inc.) were performed in the same manner.

S. aureus USA300 [2] = assay: Propidium iodide membrane permeation; assay type: cell-based, Staphylococcus aureus
Protocol: Fluorescence spectroscopy was also used to follow bacterial killing. In brief, a serially diluted 10× peptide (10 μL) was made in 96-well coming COSTAR microtiter plates. Propidium iodide (2 μL) was added at 50 μM to each well which was finally incubated with S. aureus USA300 bacteria (88 μL at a final OD600 ˜0.1) with continuous shaking at 100 rpm, 37° C. in a FLUOstar® Omega (BMG LABTECH Inc, NC) microplate reader. The plates were read every 5 minutes for a total duration of 2 hours with excitation and emission wavelengths at 584 nm and 620 nm respectively. Plots were made using averaged readings from duplicated experiments after subtraction of the media control.

S. epidermidis 1457 = assay type: cell-based, Staphylococcus epidermidis
Protocol: as §4, §5

E. coli K12 = assay type: cell-based, Escherichia coli
Protocol: as §4, §5

C. glabrata ATCC 2001 = assay type: cell-based, Candida glabrata; conditions: ATCC 2001, 48 h
Protocol: as §3

MTS cytotoxicity assay [3] = assay type: cell-based; conditions: human
Protocol: as §6
Human skin HaCaT (immortalized keratinocyte from AddexBio, T0020001) and kidney HEK293 cells were also cultivated for cytotoxicity evaluation of the peptides in a similar manner.

[4] = tested on: Candida albicans ATCC 10231; assay type: cell-based; conditions: ATCC 10231, 48 h
Protocol: as §3

S. aureus USA300 [5] = assay type: cell-based, Staphylococcus aureus
Protocol: The minimal bactericidal concentration (MBC) was determined by plating 50 μl of the content in the clear wells of the above MIC assays. MBC was determined on the petri dishes without bacterial colony formation after overnight growth (Wang et al. (2012) Biochemistry 51:653-664).

S. aureus UAMS-1 = assay type: cell-based, Staphylococcus aureus
Protocol: as §4, §5

S. aureus USA300 [6] = assay type: cell-based, Staphylococcus aureus; remark: listed apart in the source
Protocol: as §4, §5

S. aureus Mu50 = assay type: cell-based, Staphylococcus aureus
Protocol: as §4, §5

S. aureus Newman = assay type: cell-based, Staphylococcus aureus
Protocol: as §4, §5

proteinase K = biological target: T1, proteinase K (Parengyodontium album, UniProt P06873); assay: Peptide stability to proteases (SDS-PAGE); assay type: in vitro ADME, fungal; conditions: peptide:protease 40:1, 24 hours, 37° C.
T1 construct: purchased Sigma or Fisher
Protocol: (§7) When degraded, no peptide band could be detected on a 5% stacking/18% resolving tricine gel after 2-4 hours incubation at 37° C. Briefly, a solution (100 μL) containing 250 μM peptide and 6.25 μM protease (Sigma or Fisher) in 10 mM PBS buffer (pH 8) was incubated at 37° C. (peptide/protease molar ratio, 40:1). Aliquots (10 μL) of the reaction solutions were taken at 0, 6, and 24 hours and immediately mixed with 10 μL of 2× SDS loading buffer followed by boiling for 5 minutes to stop the reaction. […] After electrophoresis, the gel was stained by Brilliant Blue R-250 (Fisher) and destained to view the peptide bands.

S. aureus V8 protease = biological target: T2, S. aureus V8 protease (Staphylococcus aureus, UniProt P0C1U8); assay type: in vitro ADME; conditions: peptide:protease 40:1, 24 hours, 37° C.
T2 construct: purchased Sigma or Fisher
Protocol: as §7

T1 sequence (P06873 106-384): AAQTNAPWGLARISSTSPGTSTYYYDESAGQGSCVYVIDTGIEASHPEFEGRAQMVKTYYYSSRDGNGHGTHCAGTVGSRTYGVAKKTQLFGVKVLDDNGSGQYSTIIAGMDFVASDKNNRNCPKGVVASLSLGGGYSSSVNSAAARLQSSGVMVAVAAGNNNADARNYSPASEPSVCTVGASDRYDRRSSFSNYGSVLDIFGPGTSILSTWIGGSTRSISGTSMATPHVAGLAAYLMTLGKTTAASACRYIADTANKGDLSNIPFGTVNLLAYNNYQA

MIC ECl (E. cloacae B2366-12): 12.5 ± 0 µM (≈ 25.6 µg/mL)
MIC EF (E. faecium ATCC51559): 3.1 ± 0 µM (≈ 6.34 µg/mL)
MIC range against almost all / most of the tested strains (ESKAPE pathogens): 3.1 to 12.5 µM
MIC PA (P. aeruginosa PAO1): 50 µM (≈ 102 µg/mL)
MIC AB (A. baumannii B2367-12): 4.67 ± 2.2 µM (≈ 9.55 µg/mL)
MIC SA (S. aureus USA300 LAC): 4.67 ± 1.8 µM (≈ 9.55 µg/mL)
MIC EC (E. coli ATCC 25922): 4.67 ± 2.2 µM (≈ 9.55 µg/mL)
SMILES: CC[C@H](C)[C@H](NC(=O)[C@H](CCCNC(=N)N)NC(=O)[C@H](CCC(N)=O)NC(=O)[C@@H](NC(=O)[C@@H](NC(=O)[C@H](CCCNC(=N)N)NC(=O)[C@H](CCCCN)NC(=O)[C@@H](N)Cc1ccccc1)[C@@H](C)CC)C(C)C)C(=O)N[C@@H](CCCCN)C(=O)N[C@@H](CC(=O)O)C(=O)N[C@@H](Cc1ccccc1)C(=O)N[C@@H](CC(C)C)C(=O)N[C@@H](CCCNC(=N)N)C(=O)N[C@@H](CC(N)=O)C(=O)N[C@@H](CC(C)C)C(=O)N[C@H](C(N)=O)C(C)C [FK-16, FKRIVQRIKDFLRNLV, reference compound] (H-FKRIVQRIKDFLRNLV-NH2; N-terminus and C-terminus assumed)

SMILES: CC[C@H](C)[C@H](NC(=O)[C@H](CCCCN)NC(=O)[C@H](CCCCN)NC(=O)[C@H](CC(C)C)NC(=O)[C@H](Cc1c[nH]c2ccccc12)NC(=O)[C@H](Cc1c[nH]c2ccccc12)NC(=O)[C@@H](N)Cc1c[nH]c2ccccc12)C(=O)N[C@@H](Cc1c[nH]c2ccccc12)C(N)=O [TetraF2W-KK, WWWLKKIW] (H-WWWLKKIW-NH2; N-terminus and C-terminus assumed)
MIC Candida tropicalis (C. tropicalis ATCC 13803): 1.6 µM (≈ 1.99 µg/mL)
MIC B. subtilis 168 (B. subtilis 168): 6.2 µM (≈ 7.72 µg/mL)
CC50 at 1 hour (MTS cytotoxicity assay [1]): 70 µM
CC50 at 1 hour (Hemolytic assay; chicken, read-out: LC50 Chicken RBCs): 50 µM
CC50 at 1 hour (Hemolytic assay; human, read-out: LC50 Human RBCs): 40 µM
CC50 at 1 hour (Hemolytic assay; pig, read-out: LC50 Porcine RBCs): 55 µM
propidium iodide fluorescence change after treatment (S. aureus USA300 [2]): least potent
MIC S. epidermidis 1457 (S. epidermidis 1457): 6.2 µM (≈ 7.72 µg/mL)
MIC E. coli K12 (E. coli K12; K12): 12.5 to 25 µM
MIC Candida glabrata (C. glabrata ATCC 2001): 6.2 to 12.5 µM
CC50 at 1 hour (MTS cytotoxicity assay [3]; HEK293 cells): 50 µM
CC50 at 1 hour (MTS cytotoxicity assay [3]; HaCaT cells): 50 µM
MIC Candida albicans [4]: 6.2 µM (≈ 7.72 µg/mL)
MBC S. aureus USA300 (S. aureus USA300 [5]): > 25 µM
MBC S. aureus USA300 (S. aureus USA300 [5]; USA300): >25 µM
Antimicrobial activity (MIC) UAMS-1 (S. aureus UAMS-1): 6.2 µM
Antimicrobial activity (MIC) 150 mM NaCl (S. aureus USA300 [6]; USA300): 3.1 to 6.2 µM
Antimicrobial activity (MIC) USA300 (S. aureus USA300 [6]; USA300): 3.1 to 6.2 µM
MIC S. aureus USA300 (S. aureus USA300 [6]; USA300): 3.1 to 6.2 µM
Antimicrobial activity (MIC) pH 6.8 (S. aureus USA300 [6]; USA300, pH 6.8): 12.5 μM
Antimicrobial activity (MIC) Normal medium (pH 7.4) (S. aureus USA300 [6]; USA300, pH 7.4): 3.1-6.2 μM
Antimicrobial activity (MIC) pH 8 (S. aureus USA300 [6]; USA300, pH 8): 3.1 μM
Antimicrobial activity (MIC) Mu50 (S. aureus Mu50): 6.2 µM
Antimicrobial activity (MIC) Newman (S. aureus Newman): 6.2 µM

SMILES: CC[C@@H](C)[C@@H](NC(=O)[C@@H](CCCCN)NC(=O)[C@@H](CCCNC(=N)N)NC(=O)[C@@H](CC(C)C)NC(=O)[C@@H](Cc1c[nH]c2ccccc12)NC(=O)[C@@H](Cc1c[nH]c2ccccc12)NC(=O)[C@H](N)Cc1c[nH]c2ccccc12)C(=O)N[C@H](Cc1c[nH]c2ccccc12)C(N)=O [TetraF2W-RK-d, wwwlrkiw] (H-[dW][dW][dW][dL][dR][dK][dI][dW]-NH2; N-terminus and C-terminus assumed)
MIC B. subtilis 168 (B. subtilis 168): 3.1 µM (≈ 3.94 µg/mL)
stability to fungal proteinase K (proteinase K): remained stable
MIC S. epidermidis 1457 (S. epidermidis 1457): 6.2 µM (≈ 7.89 µg/mL)
MIC E. coli K12 (E. coli K12): 6.2 µM (≈ 7.89 µg/mL)
MIC E. coli K12 (E. coli K12; K12): 6.2 µM (≈ 7.89 µg/mL)
stability to S. aureus V8 protease (S. aureus V8 protease): remained stable
MBC S. aureus USA300 (S. aureus USA300 [5]; USA300): 12.5 µM (≈ 15.9 µg/mL)
MIC S. aureus USA300 (S. aureus USA300 [6]; USA300): 3.1 µM (≈ 3.94 µg/mL)
